In patent US20120095325A1, “TREATMENT OF BRAIN DISEASES VIA ULTRASOUND/MAGNETIC TARGETING DELIVERY AND TRACING OF THERAPEUTIC AGENTS” (Chang Gung Medical Foundation, Linkou Branch, priority 2010, published 2012):
In brackets after ≈: the same amount, converted by molar mass.

Legend:
[1] = cited from earlier work
breast carcinoma = conditions: cited from earlier work
Rat glioma C6 cells = assay: Cell toxicity in vitro, XTT assay; format: cell-based; conditions: 12 hrs, no magnetic field
Description: Rat glioma C6 cells were cultured in the culture medium RPMI 1640 supplemented with 2.2 mg/mL sodium carbonate, 10% FBS, 50 μg/mL gentamycin, 50 μg/mL penicillin and 50 μg/mL streptomycin at 37° C. and 5% CO2. Approximately 10,000 cells were placed in each well of a 96-well culture plate and incubated in a humidified chamber at 37° C. and 5% CO2 for 24 hrs.
Before counting viable cells by the XTT assay, the culture medium in each well was removed and cells were incubated in 120 μL of XTT for 3 hrs. After the reaction, a 100 μL aliquot of the solution in each well was sampled and transferred to a 96-well counting dish, followed by measuring absorbance at OD490 using an ELISA reader, so as to determine cell viability (%). The experimental results were expressed as mean±SD. The in vitro cytotoxicities of MNPs, epirubicin and epirubicin-MNPs on C6 cells were evaluated by the IC50 values thereof.

in vivo = conditions: Sprague-Dawley, rat
Description: All animal experiments were approved by the Institutional Animal Care and Use Committee of Chang Gung University and adhered to their experimental animal care guidelines. […] Brain tumors were induced in another 14 rats by injection of cultured C6 tumor cells. Briefly, C6 tumor cells (10^6 cells/plate) were injected into the brains using a microdialysis pump system (CMA Microdialysis). Animals underwent FUS treatment on Day 10 after tumor implantation to determine if the method could open an area of the BBB sufficiently large to cover the area of the induced tumors.
Before the FUS treatment, the rats were anesthetized by i.p. injection of chlorohydrate (30 mg/kg). The top of the cranium of each rat was shaved with clippers, and a PE-50 catheter was inserted into the jugular vein. The animal's head was attached tightly to a 4-cm^2 thin-film window directly under an acrylic water tank. The animal's cranial opening was filled with degassed water to serve as an acoustic coupling device. SonoVue® SF6-coated US microbubbles (mean diameter 2-5 μm, 2.5 μg/kg; Bracco) were administered i.v. before sonication (with a time lapse<10 s). Each bolus injection contained 0.1 mL of microbubble/kg of body weight mixed with 0.2 mL of saline solution. A heparin flush (0.2 mL) was subsequently performed.
Animal experiments were monitored using the 3-T magnetic resonance imager to localize the geometric center of the FUS and the energy exposure site. US was delivered to the brain transcranially using a MR-compatible spherical transducer (diameter, 60 mm; radius of curvature, 80 mm; frequency, 400 kHz, electric-to-acoustic efficiency, 70%; Imasonics) with the center of the focal zone positioned at a penetration depth of 2 to 3 mm in each hemisphere. Single burst-mode US was delivered, with a burst length of 10 ms, a pulse-repetition frequency of 1 Hz, and total sonication duration of 120 s. For optimization studies, the input electric power used was 2 W, corresponding to an acoustic negative peak (i/e., spatial-peak, temporal-peak) pressure amplitude measured through the animal cranium equal to 0.62 MPa.
In the MT treatment, a permanent magnet having a peak magnetic flux density of 0.18 T, 0.4 T or 0.55 T was used to produce an inhomogeneous magnetic field. To concentrate the magnetic flux density onto the disrupted region of the BBB, the magnet was tilted at an angle relative to the animal's brain, attached to the animal's scalp, and supported and tightened using a custom-made plastic belt for the desired duration (3-24 hrs). MRI images were acquired immediately after removal of the magnet.
Animals' brains were monitored by MRI after the FUS treatment and/or the MT treatment. All MRI images were acquired on a 3-T scanner using the standard wrist coil with an inner diameter of 13 cm. The animals were anesthetized with 2% isoflurane throughout the MRI imaging process, placed in an acrylic holder, and positioned in the center of the magnet. An i.v. bolus (0.1 mmol/kg) of gadopentetate dimeglumine MRI contrast agent (Magnevist; Berlex) was administered before scanning. To identify the region of the BBB disrupted by the FUS treatment, contrast-enhanced T1 turbo spin-echo sequences were acquired using the following parameters: repetition/echo time, 780 ms/15 ms; slice thickness, 1.4 mm; matrix size, 128×256; field of view, 39×60 mm (resolution, 0.3×0.3 mm). T2-weighted images were obtained to produce R2 maps both in gel phantom or in vivo experiments by using a double-TE spinecho sequence and acquired three times, using the following parameters: repetition time, 3,860 ms, echo time, 8/14, 28/57, and 85/228 ms; matrix, 128×256; field of view, 38×76 mm (resolution, 0.3×0.3 mm); and slice thickness, 1.4 mm.

| Structure (SMILES) | doxorubicin delivered into normal brains by FUS ([1]; FUS treatment used safely) | doxorubicin delivery by FUS ([1]; increased delivery, at the expense of increased damage to brain tissue) | therapeutic range reported in vivo (breast carcinoma; human, in vivo) [ng/g tumor] | clinical response rate (breast carcinoma; patients with breast carcinoma) [%] | IC50 (Rat glioma C6 cells) [mg/L] | concentration at 6 hr (in vivo) [ng/g] | epirubicin accumulated in tissue (in vivo) | epirubicin concentration measured in tissues per iron (range) (in vivo) | epirubicin delivered, assessed by ICP-OES/HPLC (in vivo) | epirubicin delivered, assessed by MRI (in vivo) | mean immobilization ratio in tissues (in vivo) [μg epirubicin/mg iron ion] |
| --- | --- | --- | --- | --- | --- | --- | --- | --- | --- | --- | --- |
| COc1cccc2c1C(=O)c1c(O)c3c(c(O)c1C2=O)C[C@@](O)(C(=O)CO)C[C@@H]3O[C@H]1C[C@H](N)[C@H](O)[C@H](C)O1 [doxorubicin] | 886±327 ng doxorubicin per gram of tissue | 5,336±659 ng/g | 819±482 | 39 |  |  |  |  |  |  |  |
| COc1cccc2c1C(=O)c1c(O)c3c(c(O)c1C2=O)C[C@@](O)(C(=O)CO)C[C@@H]3O[C@H]1C[C@H](N)[C@@H](O)[C@H](C)O1 [epirubicin] |  |  |  |  | 6.7 (≈ 12.3 µM) | 21700 | 1,336±1,182 ng epirubicin per gram of tissue | 383-415 μg epirubicin/mg iron ion | 1,162±1,028 ng/g | 1,197±226 ng/g | 395.6±17.3 |
